# Laboratory results: US6599900B2, “1-oxa-3,9-diaza-spiro[5,5]undecan-2-ones” (Syntex (U.S.A.) LLC, priority 2001, dated 2003)
# Counter-ions that a name gives are not always drawn.
# Molecular target: T1, human NK1 receptor (Homo sapiens, UniProt P25103)
# T1 construct: expressed in transfected cells; host or cells: CHO cells infected with the Semliki virus expression system; membrane suspension used
# Experiment: [3H]substance P binding at human NK1 receptors in CHO cells
# Settings: affinity to the NK-1 receptor; [3H]substance P 0.6 nM displacement, CHO cell membranes, 60 min at room temperature
# Protocol: The affinity of test compounds for the NK1 receptor was evaluated at human NK1 receptors in CHO cells infected with the human NK1 receptor (using the Semliki virus expression system) and radiolabelled with [^3H]substance P (final concentration 0.6 nM). Binding assays were performed in HEPES buffer (50 mM, pH 7.4) containing BSA (0.04%) leupeptin (8 μg/ml), MnCl2 (3 mM) and phosphoramidon (2 μM). Binding assays consisted of 250 μl of membrane suspension (1.25×10^5 cells/assay tube), […] of buffer of displacing agent and 125 μl of [^3H]substance P. Displacement curves were determined with at least seven concentrations of the compound. The assay tubes were incubated for 60 min at room temperature after which time the tube contents were rapidly filtered under vacuum through GF/C filters presoaked for 60 min with PEI (0.3%) with 2×2 ml washes of HEPES buffer (50 mM, pH 7.4). The radioactivity retained on the filters was measured by scintillation counting. All assays were performed in triplicate in at least 2 separate experiments.
# T1 sequence (P25103 whole entry): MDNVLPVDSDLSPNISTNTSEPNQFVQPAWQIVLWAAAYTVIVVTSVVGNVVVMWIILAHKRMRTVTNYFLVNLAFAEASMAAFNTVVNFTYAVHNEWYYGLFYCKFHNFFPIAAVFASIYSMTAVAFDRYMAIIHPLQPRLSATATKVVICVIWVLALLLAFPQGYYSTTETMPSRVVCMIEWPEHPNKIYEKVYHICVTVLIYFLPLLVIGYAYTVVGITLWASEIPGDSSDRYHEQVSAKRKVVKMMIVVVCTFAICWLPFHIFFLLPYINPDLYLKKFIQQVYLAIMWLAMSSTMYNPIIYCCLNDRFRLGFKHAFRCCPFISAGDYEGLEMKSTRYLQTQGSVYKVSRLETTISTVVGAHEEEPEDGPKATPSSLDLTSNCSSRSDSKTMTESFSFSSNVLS
row,SMILES,Ki
1,"Cc1ccccc1C1CNC(=O)OC12CCN(C(=O)c1cc(C(F)(F)F)cc(C(F)(F)F)c1)CC2 (racemic) [Example 7, (5RS)-9-(3,5-bis-trifluoromethyl-benzoyl)-5-o-tolyl-1-oxa-3,9-diaza-spiro[5.5]undecan-2-one]",10.7 nM
2,"O=C1NCC(c2ccc(Cl)cc2)C2(CCN(C(=O)c3cc(C(F)(F)F)cc(C(F)(F)F)c3)CC2)O1 (racemic) [Example 8, (5RS)-9-(3,5-bis-trifluoromethyl-benzoyl)-5-(4-chloro-phenyl)-1-oxa-3,9-diaza-spiro[5.5]undecan-2-one]",11 nM
3,"Cc1ccc(C2CNC(=O)OC23CCN(C(=O)c2cc(C(F)(F)F)cc(C(F)(F)F)c2)CC3)cc1C (racemic) [Example 9, (5RS)-9-(3,5-bis-trifluoromethyl-benzoyl)-5-(3,4-dimethyl-phenyl)-1-oxa-3,9-diaza-spiro[5.5]undecan-2-one]",12.6 nM
4,"COc1cccc(C2CNC(=O)OC23CCN(C(=O)c2cc(C(F)(F)F)cc(C(F)(F)F)c2)CC3)c1 (racemic) [Example 10, (5RS)-9-(3,5-bis-trifluoromethyl-benzoyl)-5-(3-methoxy-phenyl)-1-oxa-3,9-diaza-spiro[5.5]undecan-2-one]",14.8 nM
5,"O=C1NCC(c2ccccc2Cl)C2(CCN(C(=O)c3cc(C(F)(F)F)cc(C(F)(F)F)c3)CC2)O1 (racemic) [Example 11, (5RS)-9-(3,5-bis-trifluoromethyl-benzoyl)-5-(2-chloro-phenyl)-1-oxa-3,9-diaza-spiro[5.5]undecan-2-one]",23.4 nM
6,"O=C(c1cc(C(F)(F)F)cc(C(F)(F)F)c1)N1CCC2(CC1)OC(=O)N(C1CCOCC1)CC2c1ccccc1 (racemic) [Example 13, (5RS)-9-(3,5-bis-trifluoromethyl-benzoyl)-5-phenyl-3-(tetrahydro-pyran-4-yl)-1-oxa-3,9-diaza-spiro[5.5]undecan-2-one]",19.1 nM
7,"O=C1OC2(CCN(C(=O)c3cc(C(F)(F)F)cc(C(F)(F)F)c3)CC2)C(c2ccc(F)c(F)c2)CN1CC(F)F (racemic) [Example 15, (5RS)-9-(3,5-bis-trifluoromethyl-benzoyl)-3-(2,2-difluoro-ethyl)-5-(3,4-difluoro-phenyl)-1-oxa-3,9-diaza-spiro[5.5]undecan-2-one]",11.5 nM
8,"CN1CC(c2ccccc2)C2(CCN(C(=O)c3cc(C(F)(F)F)cc(C(F)(F)F)c3)CC2)OC1=O (racemic) [Example 18, (5RS)-9-(3,5-bis-trifluoromethyl-benzoyl)-3-methyl-5-phenyl-1-oxa-3,9-diaza-spiro[5.5]undecan-2-one]",15.5 nM
9,"COCCN1CC(c2ccc(F)c(F)c2)C2(CCN(C(=O)c3cc(C(F)(F)F)cc(C(F)(F)F)c3)CC2)OC1=O (racemic) [Example 19, (5RS)-9-(3,5-bis-trifluoromethyl-benzoyl)-5-(3,4-difluoro-phenyl)-3-(2-methoxy-ethyl)-1-oxa-3,9-diaza-spiro[5.5]undecan-2-one]",19.1 nM
10,"CN1CC(c2ccc(F)c(F)c2)C2(CCN(C(=O)c3cc(C(F)(F)F)cc(C(F)(F)F)c3)CC2)OC1=O (racemic) [Example 20, (5RS)-9-(3,5-bis-trifluoromethyl-benzoyl)-5-(3,4-difluoro-phenyl)-3-methyl-1-oxa-3,9-diaza-spiro[5.5]undecan-2-one]",30.9 nM
11,"O=C1OC2(CCN(C(=O)c3cc(C(F)(F)F)cc(C(F)(F)F)c3)CC2)C(c2ccccc2)CN1CCO (racemic) [Example 22, (5RS)-9-(3,5-bis-trifluoromethyl-benzoyl)-3-(2-hydroxy-ethyl)-5-phenyl-1-oxa-3,9-diaza-spiro[5.5]undecan-2-one]",15.8 nM
12,"O=C1OC2(CCN(C(=O)c3cc(C(F)(F)F)cc(C(F)(F)F)c3)CC2)C(c2ccccc2)CN1CCN1CCCC1 (racemic) [Example 30, (5RS)-9-(3,5-bis-trifluoromethyl-benzoyl)-5-phenyl-3-(2-pyrrolidin-1-yl-ethyl)-1-oxa-3,9-diaza-spiro[5.5]undecan-2-one; hydrochloride]",11.5 nM
13,"COc1nc(OC)nc(N2CC(c3ccccc3)C3(CCN(C(=O)c4cc(C(F)(F)F)cc(C(F)(F)F)c4)CC3)OC2=O)n1 (stereo not drawn) [Example 17, (5RS)-9-(3,5-bis-trifluoromethyl-benzoyl)-3-(4,6-dimethoxy-[1,3,5]triazin-2-yl)-5-phenyl-oxa-1-3,9-diaza-spiro[5.5]undecan-2-one]",13.2 nM

# Continued, values first:
row,Ki,SMILES
1,5.13 nM,"O=C1NCC(c2cccc(Cl)c2)C2(CCN(C(=O)c3cc(C(F)(F)F)cc(C(F)(F)F)c3)CC2)O1 (racemic) [Example 1, (5RS)-9-(3,5-bis-trifluoromethyl-benzoyl)-5-(3-chloro-phenyl)-1-oxa-3,9-diaza-spiro[5.5]undecan-2-one]"
2,1.7 nM,"O=C1NCC(c2ccc(F)c(F)c2)C2(CCN(C(=O)c3cc(C(F)(F)F)cc(C(F)(F)F)c3)CC2)O1 (racemic) [Example 2, (5RS)-9-(3,5-bis-trifluoromethyl-benzoyl)-5-(3,4-difluoro-phenyl)-1-oxa-3,9-diaza-spiro[5.5]undecan-2-one]"
3,2.63 nM,"O=C1NCC(c2ccc(Cl)c(Cl)c2)C2(CCN(C(=O)c3cc(C(F)(F)F)cc(C(F)(F)F)c3)CC2)O1 (racemic) [Example 3, (5RS)-9-(3,5-bis-trifluoromethyl-benzoyl)-5-(3,4-dichloro-phenyl)-1-oxa-3,9-diaza-spiro[5.5]undecan-2-one]"
4,5.13 nM,"O=C1NCC(c2ccccc2)C2(CCN(C(=O)c3cc(C(F)(F)F)cc(C(F)(F)F)c3)CC2)O1 (racemic) [Example 4, (5RS)-9-(3,5-bis-trifluoromethyl-benzoyl)-5-phenyl-1-oxa-3,9-diaza-spiro[5.5]undecan-2-one]"
5,8.51 nM,"O=C1NCC(c2cccc(F)c2F)C2(CCN(C(=O)c3cc(C(F)(F)F)cc(C(F)(F)F)c3)CC2)O1 (racemic) [Example 5, (5RS)-9-(3,5-bis-trifluoromethyl-benzoyl)-5-(2,3-difluoro-phenyl)-1-oxa-3,9-diaza-spiro[5.5]undecan-2-one]"
6,9.77 nM,"O=C1NCC(c2cc(F)ccc2F)C2(CCN(C(=O)c3cc(C(F)(F)F)cc(C(F)(F)F)c3)CC2)O1 (racemic) [Example 6, (5RS)-9-(3,5-bis-trifluoromethyl-benzoyl)-5-(2,5-difluoro-phenyl)-1-oxa-3,9-diaza-spiro[5.5]undecan-2-one]"
7,3.89 nM,"CN1CCC(N2CC(c3ccccc3)C3(CCN(C(=O)c4cc(C(F)(F)F)cc(C(F)(F)F)c4)CC3)OC2=O)CC1 (racemic) [Example 12, (5RS)-9-(3,5-bis-trifluoromethyl-benzoyl)-3-(1-methyl-piperidin-4-yl)-5-phenyl-1-oxa-3,9-diaza-spiro[5.5]undecan-2-one]"
8,6.61 nM,"CN(C)C(=O)CN1CC(c2ccccc2)C2(CCN(C(=O)c3cc(C(F)(F)F)cc(C(F)(F)F)c3)CC2)OC1=O (racemic) [Example 14, (5RS)-2-[9-(3,5-bis-trifluoromethyl-benzoyl)-2-oxo-5-phenyl-1-oxa-3,9-diaza-spiro[5.5]undec-3-yl]-N,N-dimethyl-acetamide]"
9,6.17 nM,"O=C1OC2(CCN(C(=O)c3cc(C(F)(F)F)cc(C(F)(F)F)c3)CC2)C(c2ccccc2)CN1Cc1cccnc1 (racemic) [Example 16, (5RS)-9-(3,5-bis-trifluoromethyl-benzoyl)-5-phenyl-3-pyridin-3-ylmethyl-1-oxa-3,9-diaza-spiro[5.5]undecan-2-one]"
10,6.76 nM,"O=C1OC2(CCN(C(=O)c3cc(C(F)(F)F)cc(C(F)(F)F)c3)CC2)C(c2ccccc2)CN1CCCO (racemic) [Example 21, (5RS)-9-(3,5-bis-trifluoromethyl-benzoyl)-3-(3-hydroxy-propyl)-5-phenyl-1-oxa-3,9-diaza-spiro[5.5]undecan-2-one]"
11,3.39 nM,"O=C1OC2(CCN(C(=O)c3cc(C(F)(F)F)cc(C(F)(F)F)c3)CC2)C(c2ccccc2)CN1CCCN1CCCC1 (racemic) [Example 23, (5RS)-9-(3,5-bis-trifluoromethyl-benzoyl)-5-phenyl-3-(3-pyrrolidin-1-yl-propyl)-1-oxa-3,9-diaza-spiro[5.5]undecan-2-one]"
12,3.47 nM,"O=C1OC2(CCN(C(=O)c3cc(C(F)(F)F)cc(C(F)(F)F)c3)CC2)C(c2ccccc2)CN1CCCN1CCOCC1 (racemic) [Example 24, (5RS)-9-(3,5-bis-trifluoromethyl-benzoyl)-3-(3-morpholin-4-yl-propyl)-5-phenyl-1-oxa-3,9-diaza-spiro[5.5]undecan-2-one]"
13,4.07 nM,"O=C1OC2(CCN(C(=O)c3cc(C(F)(F)F)cc(C(F)(F)F)c3)CC2)C(c2ccccc2)CN1CCCN1CCC(O)C1 (racemic) [Example 26, (5RS)-9-(3,5-bis-trifluoromethyl-benzoyl)-3-[3-(3-hydroxy-pyrrolidin-1-yl)-propyl]-5-phenyl-1-oxa-3,9-diaza-spiro[5.5]undecan-2-one]"
14,7.41 nM,"CN(C)CCN1CC(c2ccccc2)C2(CCN(C(=O)c3cc(C(F)(F)F)cc(C(F)(F)F)c3)CC2)OC1=O (racemic) [Example 28, (5RS)-9-(3,5-bis-trifluoromethyl-benzoyl)-3-(2-dimethylamino-ethyl)-5-phenyl-1-oxa-3,9-diaza-spiro[5.5]undecan-2-one hydrochloride]"
15,10.5 nM,"CN1CCN(CCCN2CC(c3ccccc3)C3(CCN(C(=O)c4cc(C(F)(F)F)cc(C(F)(F)F)c4)CC3)OC2=O)CC1 (racemic) [Example 29, (5RS)-9-(3,5-bis-trifluoromethyl-benzoyl)-3-[3-(4-methyl-piperazin-1-yl)-propyl]-5-phenyl-1-oxa-3,9-diaza-spiro[5.5]undecan-2-one]"
